The source of these data is patent publication US5672609A, “Pyridine compounds, intermediates compositions and methods of use” (Eli Lilly and Company, priority 1996, dated 1997).

Assay [1] has as its system uterus. Briefly: Uterine weight in ovariectomized rats, 4-day oral dosing (Table 1). The assay is classed as in vivo, female Sprague Dawley rats. Conditions: OVX rats; for change in vivo at 0.1 mg/kg: 0.1 mg/kg oral; for change in vivo at 10 mg/kg: 10 mg/kg oral; for change in vivo at 25 mg/kg: 25 mg/kg oral. Here is the method: In the examples illustrating the methods, a post-menopausal model was used in which effects of different treatments upon circulating lipids were determined.
(§1) Seventy-five day old female Sprague Dawley rats (weight range of 200 to 225 g) were obtained from Charles River Laboratories (Portage, Mich.). The animals were either bilaterally ovariectomized (OVX) or exposed to a sham surgical procedure at Charles River Laboratories, and then shipped after one week. Upon arrival, they were housed in metal hanging cages in groups of 3 or 4 per cage and had ad libitum access to food (calcium content approximately 0.5%) and water for one week. Room temperature was maintained at 22.2° ±1.7° C. with a minimum relative humidity of 40%. The photoperiod in the room was 12 hours light and 12 hours dark.
(§2) Dosing Regimen Tissue Collection. After a one week acclimation period (therefore, two weeks post-OVX) daily dosing with test compound was initiated. 17α-ethynyl estradiol or the test compound were given orally, unless otherwise stated, as a suspension in 1% carboxymethylcellulose or dissolved in 20% cyclodextrin. Animals were dosed daily for 4 days. Following the dosing regimen, animals were weighed and anesthetized with a ketamine: Xylazine (2:1, V:V) mixture and a blood sample was collected by cardiac puncture. The animals were then sacrificed by asphyxiation with CO2, the uterus was removed through a midline incision, and a wet uterine weight was determined.
(§3) Data presented in Table 1 below show comparative results among ovariectomized rats, rats treated with 17α-ethynyl estradiol (EE2; an orally available form of estrogen), and rats treated with certain compounds of the present invention. […] This uterine response to estrogen is well recognized in the art.
(§4) The data presented in Table 1 below reflects the response of 5 to 6 rats per treatment.

For assay [2], the system named is Uterine Eosinophil Peroxidase (EPO). Briefly: Uterine Eosinophil Peroxidase (EPO) Assay (Table 1). The assay is classed as in vivo, female Sprague Dawley rats. On the set-up: key to Uterine EPO (V. max): Vmax of absorbance increase at 450 nm, monitored over 1 min. Conditions: for Uterine EPO (V. max): OVX rats, daily for 4 days.
From the text: as §1, §2
Uterine Eosinomhil Peroxidase (EPO) Assay. Uteri were kept at 4° C. until time of enzymatic analysis. The uteri were then homogenized in 50 volumes of 50 mM Tris buffer (pH-8.0) containing 0.005% Triton X-100. Upon addition of 0.01% hydrogen peroxide and 10 mM O-phenylenediamine (final concentrations) in Tris buffer, increase in absorbance was monitored for one minute at 450 nm. The presence of eosinophils in the uterus is an indication of estrogenic activity of a compound. The maximal velocity of a 15 second interval was determined over the initial, linear portion of the reaction curve.
As is expressed in the below data, estrogenicity also was assessed by evaluating the response of eosinophil infiltration into the uterus.
as §4

The test system of assay [3] is Serum cholesterol. Nature of the assay: Serum cholesterol in ovariectomized rats, 4-day oral dosing (Table 1). Type of assay: in vivo, female Sprague Dawley rats. Particulars: OVX rats; for inhibition in vivo at 0.1 mg/kg: 0.1 mg/kg oral; for inhibition in vivo at 25 mg/kg: 25 mg/kg oral.
From the text: as §1, §2
(§5) Cholesterol Analysis. Blood samples were allowed to clot at room temperature for 2 hours, and serum was obtained following centrifugation for 10 minutes at 3000 rpm. Serum cholesterol was determined using a Boehringer Mannheim Diagnostics high performance cholesterol assay. Briefly the cholesterol was oxidized to cholest-4-en-3-one and hydrogen peroxide. The hydrogen peroxide was then reacted with phenol and 4-aminophenazone in the presence of peroxidase to produce a p-quinone imine dye, which was read spectrophotometrically at 500 nm. Cholesterol concentration was then calculated against a standard curve. The entire assay was automated using a Biomek Automated Workstation.
as §3, §4

The test system of assay [4] is uterus. Nature of the assay: Osteoporosis Test: uterine weight (Table 2). The assay is classed as in vivo. Particulars: daily for 35 days, 6-month-old rats. Here is the method:
(§6) Following the General Preparation Procedure, infra, the rats were treated daily for 35 days (6 rats per treatment group) and sacrificed by carbon dioxide asphyxiation on the 36th day. The 35 day time period was sufficient to allow maximal reduction in bone density, measured as described herein. At the time of sacrifice, the uteri were removed, dissected free of extraneous tissue, and the fluid contents were expelled before determination of wet weight in order to confirm estrogen deficiency associated with complete ovariectomy. […] In accordance with the above procedures, the compound of Example 9 and ethynyl estradiol (EE2) in 20% hydroxypropyl β-cyclodextrin were orally administered to test animals. Distal femur metaphysis data presented in Tables 2 and 3 below are the results of compound treatments compared to intact and ovariectomized test animals. The rats in the Table 2 tests were 6 months of age rather than 75 days of age (at the beginning of the tests).

In assay [5] the test system is Femur (distal metaphysis). Briefly: Osteoporosis Test: distal femur metaphysis x-ray image / bone density (Table 2). The assay is classed as in vivo, rats. Particulars: for Femur (x-ray image) (% protect.): daily for 35 days, 6-month-old rats; for bone density, in words: ovariectomized rats, oral, 35 days. Here is the method:
Following the General Preparation Procedure, infra, the rats were treated daily for 35 days (6 rats per treatment group) and sacrificed by carbon dioxide asphyxiation on the 36th day. The 35 day time period was sufficient to allow maximal reduction in bone density, measured as described herein. At the time of sacrifice, the uteri were removed, dissected free of extraneous tissue, and the fluid contents were expelled before determination of wet weight in order to confirm estrogen deficiency associated with complete ovariectomy. […] The right femurs were excised and digitilized x-rays generated and analyzed by an image analysis program (NIH image) at the distal metaphysis. The proximal aspect of the tibiae from these animals were also scanned by quantitative computed tomography. In accordance with the above procedures, the compound of Example 9 and ethynyl estradiol (EE2) in 20% hydroxypropyl β-cyclodextrin were orally administered to test animals. Distal femur metaphysis data presented in Tables 2 and 3 below are the results of compound treatments compared to intact and ovariectomized test animals. The rats in the Table 2 tests were 6 months of age rather than 75 days of age (at the beginning of the tests).

Assay [6] concerns Serum cholesterol. Nature of the assay: Osteoporosis Test: serum cholesterol (Table 2). Type of assay: in vivo. Particulars: daily for 35 days, 6-month-old rats. Here is the method: as §5
Following the General Preparation Procedure, infra, the rats were treated daily for 35 days (6 rats per treatment group) and sacrificed by carbon dioxide asphyxiation on the 36th day. The 35 day time period was sufficient to allow maximal reduction in bone density, measured as described herein. At the time of sacrifice, the uteri were removed, dissected free of extraneous tissue, and the fluid contents were expelled before determination of wet weight in order to confirm estrogen deficiency associated with complete ovariectomy.
In accordance with the above procedures, the compound of Example 9 and ethynyl estradiol (EE2) in 20% hydroxypropyl β-cyclodextrin were orally administered to test animals. Distal femur metaphysis data presented in Tables 2 and 3 below are the results of compound treatments compared to intact and ovariectomized test animals. The rats in the Table 2 tests were 6 months of age rather than 75 days of age (at the beginning of the tests).

Assay [7] concerns MCF-7 breast adenocarcinoma cells. Nature of the assay: MCF-7 Proliferation Assay. Type of assay: cell-based. Conditions: Homo sapiens, MCF7, tritiated thymidine, 48 hours. Here is the method: MCF-7 breast adenocarcinoma cells (ATCC HTB 22) were maintained in MEM (minimal essential medium, phenol red-free, Sigma, St. Louis, Mo.) supplemented with 10% fetal bovine serum (FBS) (V/V), L-glutamine (2 mM), sodium pyruvate (1 mM), HEPES {(N-[2-hydroxyethyl]piperazine-N'-[2-ethanesulfonic acid]10 mM}, non-essential amino acids and bovine insulin (1 ug/mL) (maintenance medium). Ten days prior to assay, MCF-7 cells were switched to maintenance medium supplemented with 10% dextran coated charcoal stripped fetal bovine serum (DCC-FBS) assay medium) in place of 10% FBS to deplete internal stores of steroids. MCF-7 cells were removed from maintenance flasks using cell dissociation medium (Ca++/Mg++free HBSS (phenol red-free) supplemented with 10 mM HEPES and 2 mM EDTA). Cells were washed twice with assay medium and adjusted to 80,000 cells/mL. Approximately 100 μL (8,000 cells) were added to flat-bottom microculture wells (Costar 3596) and incubated at 37° C. in a 5% CO2 humidified incubator for 48 hours to allow for cell adherence and equilibration after transfer. Serial dilutions of drugs or DMSO as a diluent control were prepared in assay medium and 50 μL transferred to triplicate microcultures followed by 50 μL assay medium for a final volume of 200μ. After an additional 48 hours at 37° C. in a 5% CO2 humidified incubator, microcultures were pulsed with tritiated thymidine (1 uCi/well) for 4 hours. Cultures were terminated by freezing at -70° C. for 24 hours followed by thawing and harvesting of microcultures using a Skatron Semiautomatic Cell Harvester. Samples were counted by liquid scintillation using a Wallac BetaPlace β counter. Results in Table 4 below show the IC50 for certain compounds of the present invention.

The nature of assay [8]: Osteoporosis Test: body weight change (Table 2). Type of assay: in vivo. Particulars: daily for 35 days, 6-month-old rats. Here is the method:
as §6

[9] abbreviates: Rattus norvegicus, po, 96 h, daily for 4 days, read-out: Uterine Wt. (% inc. vs. OVX).
Where [10] appears, read: Rattus norvegicus, po, 96 h, daily for 4 days, read-out: Serum Cholesterol (% dec. vs. OVX).

Molecules are shown by their SMILES. pIC50: −log10 of the molar value. Several values for one entry are separate records, joined by “and”; a condition that tells them apart may be missing. Equal values may be shown once.

Take `C#CC1(O)CCC2C3CCc4cc(O)ccc4C3CCC21C` (stereo not drawn) [EE2, 17α-ethynyl estradiol, reference compound]: the “uterine weight, in words” value in assay [1] (oral, EE2 at 0.1 mg/kg/day) was “uterine weight was substantially greater than the uterine weight of ovariectomized control animals”. The “eosinophil infiltration into the uterus, in words” value in assay [2] (ovariectomized rats) is “caused a substantial, expected increase in eosinophil infiltration”. In addition, the “serum cholesterol, in words” value in assay [3] (oral, EE2 at 0.1 mg/kg/day) is “caused a decrease in serum cholesterol”. The “Uterine Wt. (% inc. vs. OVX)” value in assay [4] (0.1 mg/kg oral) is 128.3% and 226.1%. Further, the “Femur (x-ray image) (% protect.)” value in assay [5] (0.1 mg/kg oral) was 41.8% and 25.5%. The “bone density, in words” value in assay [5] was “prevented this loss”. For the same molecule, the “Serum Chol. (% dec. vs. OVX)” value in assay [6] (0.1 mg/kg oral) was 73.8% and 73.6%.
For orientation: ED50 means the midpoint of the dose-response relation. For orientation: pIC50 means −log10 of the IC50, conventionally taken in molar units. Consider `COc1ccc(-c2ccc(-c3ccc(F)cc3)nc2-c2ccc(OCCN3CCCCC3)cc2)cc1` [Example 6, 2-[4-[2-(1-Piperidinyl)ethoxy]phenyl]-3-(4-methoxyphenyl)-6-(4-fluorophenyl)pyridine], for which, in assay [1] (setting [9]), the change in vivo at 0.1 mg/kg was 9.5%, the change in vivo at 10 mg/kg came out at 44.2% and the change in vivo at 25 mg/kg was 69.5%. Also, in assay [2] (0.1 mg/kg oral), the “Uterine EPO (V. max)” value worked out at 6.6. Moreover, the “Uterine EPO (V. max)” value in assay [2] (25 mg/kg oral) is 22.6. Besides, in assay [3] (setting [10]), the inhibition in vivo at 0.1 mg/kg was 4% and the inhibition in vivo at 25 mg/kg was 40.8%. Moreover, the inhibition in vivo at 1 mg/kg in assay [3] (Rattus norvegicus, po, 96 h, 1 mg/kg oral, daily for 4 days, read-out: Serum Cholesterol (% dec. vs. OVX)) was determined as 12.3%. For the same molecule, in assay [3] (Rattus norvegicus, po, 96 h, oral, daily for 4 days, dose column in mg/kg, read-out: ED50 (effective dose to dec. serum chol. by 50%)), the ED50 is 70 mg/kg. In assay [7], this molecule gave a pIC50 of 6.33.
On to `Cc1ccc(-c2ccc(O)cc2)c(-c2ccc(OCCN3CCCC3)cc2)n1` [Example 9, 2-[4-[2-(1-Pyrrolidinyl)ethoxy]phenyl]-3-(4-hydroxyphenyl)-6-methylpyridine], for which, in assay [1] (setting [9]), the change in vivo at 10 mg/kg worked out at 26.3%. Besides, the change in vivo at 25 mg/kg in assay [1] (setting [9]) amounted to 24.3%. The inhibition in vivo at 10 mg/kg in assay [3] (Rattus norvegicus, po, 96 h, 10 mg/kg oral, daily for 4 days, read-out: Serum Cholesterol (% dec. vs. OVX)) was 49.2%. Moreover, the inhibition in vivo at 25 mg/kg in assay [3] (setting [10]) came to 58.5%. Moreover, the “Body Wt. Change (% dec. vs. OVX)” value in assay [8] (0.01 mg/kg oral) is -5%; in assay [8] (0.1 mg/kg oral), -8.2%; in assay [8] (25 mg/kg oral), 6.3%. The “Uterine Wt. (% inc. vs. OVX)” value in assay [4] (0.01 mg/kg oral) was -3.5%; in assay [4] (0.1 mg/kg oral) it was -11%; in assay [4] (25 mg/kg oral) it was -6.8%. For the same molecule, the figures for the “Femur (x-ray image) (% protect.)” value in assay [5] (0.01 mg/kg oral), in assay [5] (0.1 mg/kg oral) and in assay [5] (25 mg/kg oral) were -11.5%, -16.4% and 33.3%, respectively. Also, the “bone density, in words” value in assay [5] was “elevated mean bone density in a general, dose-related manner”. The “Serum Chol. (% dec. vs. OVX)” value is 44.4% in assay [6] (0.01 mg/kg oral); 33.6% in assay [6] (0.1 mg/kg oral); 35.4% and 54.2% in assay [6] (1 mg/kg oral); 35.4% and 42.2% in assay [6] (10 mg/kg oral); 19.7% in assay [6] (25 mg/kg oral).
Regarding `Oc1ccc(-c2ccc(-c3ccc(F)cc3)nc2-c2ccc(OCCN3CCCCC3)cc2)cc1` [Example 12, 2-[4-[2-(1-Piperidinyl)ethoxy]phenyl]-3-(4-hydroxyphenyl)-6-(4-fluorophenyl)pyridine], in assay [1] (setting [9]), the change in vivo at 0.1 mg/kg amounted to 9.8%, the change in vivo at 10 mg/kg amounted to 76.2% and the change in vivo at 25 mg/kg came to 68%. The change in vivo at 1 mg/kg in assay [1] (Rattus norvegicus, po, 96 h, 1 mg/kg oral, daily for 4 days, read-out: Uterine Wt. (% inc. vs. OVX)) was 4.2%. For the same molecule, the “Uterine EPO (V. max)” value in assay [2] (0.1 mg/kg oral) turned out to be 5.9. Further, the “Uterine EPO (V. max)” value in assay [2] (25 mg/kg oral) amounted to 67.9. In assay [3] (setting [10]), the inhibition in vivo at 0.1 mg/kg was determined as 26.2% and the inhibition in vivo at 25 mg/kg was 49.9%. Also, the pIC50 in assay [7] is 6.73.
